We go through one compound from patent US5756345A, “Production of tryptophan by the bacterium Escherichia coli” (Degussa Aktiengesellschaft, priority 1995, dated 1998).

The subject of assay [1] is anthranilate synthase (wild-type strains). Conditions: read-out: tryptophan concentration giving about 50% inhibition of anthranilate synthase activity; cited from earlier work.
Assay [2] addresses T1, anthranilate synthase encoded by trpE476 (Escherichia coli, UniProt P00895).
T1 construct: plasmid pMU3019 in trpE-deleted JP6768 (trpDCBA functional), also trpE476DCBA on pMU91
Kind of assay: Feedback inhibition of anthranilate synthase by tryptophan, trpE476 enzyme. In kind it is biochemical. From the text: Plasmid pMU3018 (FIG. 6) carries the tip promoter, the trpE gene and part of the trpD gene on a 2.9 kb SmaI HindIII fragment. pMU3018 is derived from pMU578, which is a single-copy Tp^R plasmid carrying a galK'-lac'ZA fusion, similar to the promoter cloning vector pMU575 (Andrews, A. E., B. Lawley, and A. J. Pittard. (1991). J. Bacteriol. 173: 5068-5078), but with a SmaI EcoRI BglII linker replacing the SmaI site, and the DraI fragments removed, deleting lacY and lacA. If pMU3018 DNA is digested with these two enzymes and the fragments electrophoresed in a low melting point agarose gel it is a simple matter to separate and purify the trpEtrpD' 2.9 kb fragment and the larger 13 kb vector fragment. This 2.9 kb fragment was mutagenised with 50 mM nitrous acid for 60 minutes following the method of Ray et al. (Ray, J. M., C. Yanofsky and R. Bauerle. (1988). J. Bacteriol. 170: 5500-5506), except that spermine (1 mM) was added to the mutagenesis mixture. After mutagenesis, the fragment was religated with the larger 13 kb fragment and the products of ligation were transformed into strain JP6768, an E. coli strain which is trpR^-, and in which the trpE gene has been deleted from the chromosome but trpDCB and A are fully functional (ΔtrpLE1413 (Miozzari, G. F. and C. Yanofsky. (1978). J. Bacteriol. 133: 1457-1466). Approximately 2,000 transformants were selected on Luria agar containing trimethoprim. These were screened for growth on minimal medium supplemented with the tryptophan analogue 5-fluorotryptophan at 15 mM. Clones which grew were potential feedback-resistant mutants altered in the enzyme anthranilate synthase. The anthranilate synthase activity of each of these clones was assayed in the presence of very high levels of tryptophan (13.5 g/l) using the assay described in Cho, K-O. and C. Yanofsky. (1988). J. Mol. Biol. 204: 41-50. […] The mutant allele present in this strain was called trpE483. […] FIG. 4 compares the feedback sensitivity of anthranilate synthase from a strain with the wild-type allele (JP6768/pMU3018) and strains with the trpE483 allele (JP6768/pMU3025) and with the trpE476 allele (JP6768/pMU3019).
The effect of temperature of incubation on both stability and productivity for an overproducing strain carrying the trpS378 allele and a plasmid carrying the trp operon encoding a feedback-resistant anthranilate synthase, is shown in FIG. 2. Low temperatures favour high stability and low productivity, whilst higher temperatures favour productivity at the expense of stability. […] The data in FIG. 2 is for JP6015/pMU91 and the primary selection is for Ser^+. JP6015 is derived from JP4153 (see Example 4) by introduction of sac^+ by transduction,and introduction of serA^- by cotransduction with a closely linked Tn10 transposon, and subsequent selection of a tetracycline sensitive derivative. pMU91 is a plasmid derived from pSC101 (Cohen, S. N. and A. C. Chang (1977). J. Bacteriol. 132: 734-737), carrying Tc^R, trpE476DCBA and serA^+ (see FIG. 9). The trpE476DCBA alelle was isolated using the specialized transducing phage .PHI.80pt190h (Herschfield, V. et al (1974). Proc. Natl. Acad. Sci. USA 71:3455-3459). A trpE^- strain carrying .PHI.80pt190h was plated on minimal medium containing 1 mM 5-methyltryptophan (5MT). A pool of cells was induced by ultraviolet light to produce a lysate which was used in a subsequent transduction, selecting Trp^+ 5MTR transductants. […]

Assay [3] relates to tryptophan auxotrophs with wild-type trpS allele able to actively transport tryptophan. The assay can be described thus: Growth response to tryptophan, auxotrophs with wild-type trpS and active transport. Conditions: minimal medium. In kind it is cell-based, Escherichia coli.
Assay [4] has as its system anthranilate synthase of feedback-resistant mutants. To be noted: cited from earlier work.
The target in assay [5] is anthranilate synthase encoded by trpE483 (Escherichia coli, UniProt P00895). The assay can be described thus: Feedback inhibition of anthranilate synthase by tryptophan, trpE483 enzyme. Format: biochemical. Conditions: tryptophan 13.5 g/l. The source says:
Plasmid pMU3018 (FIG. 6) carries the tip promoter, the trpE gene and part of the trpD gene on a 2.9 kb SmaI HindIII fragment. pMU3018 is derived from pMU578, which is a single-copy Tp^R plasmid carrying a galK'-lac'ZA fusion, similar to the promoter cloning vector pMU575 (Andrews, A. E., B. Lawley, and A. J. Pittard. (1991). J. Bacteriol. 173: 5068-5078), but with a SmaI EcoRI BglII linker replacing the SmaI site, and the DraI fragments removed, deleting lacY and lacA. If pMU3018 DNA is digested with these two enzymes and the fragments electrophoresed in a low melting point agarose gel it is a simple matter to separate and purify the trpEtrpD' 2.9 kb fragment and the larger 13 kb vector fragment. This 2.9 kb fragment was mutagenised with 50 mM nitrous acid for 60 minutes following the method of Ray et al. (Ray, J. M., C. Yanofsky and R. Bauerle. (1988). J. Bacteriol. 170: 5500-5506), except that spermine (1 mM) was added to the mutagenesis mixture. […]

Assay [6] has as its system tryptophan auxotroph unable to actively transport tryptophan (JP7847). The assay can be described thus: Growth response to tryptophan, trpS+ auxotroph defective in active transport. Format: cell-based, Escherichia coli. To be noted: minimal medium. From the text: (§1) JP6006 is derived from JP4153 by introduction of ΔtrpLE1413 by P1 transduction using TN10 as a linked marker and isolation of a tetracycline-sensitive derivative, followed by introduction of sac^+ by P1 transduction, using a P1 lysate grown on sac^+ strain GA122 (Alaeddinoglu, N. G. and H. P. Charles. (1979). J. Gen. Microbiol. 110: 47-59). JP4153 is aroF363 aroG103(FBR) aroH371(FBR) trpE382(FBR) trpR363 tyrR366 trpS378 aroP579 mtr-24 tna-1. JP7847 is a trpS^+ derivative of JP6006, isolated by P1 transduction.
(§2) Cells were grown in minimal medium supplemented with different levels of tryptophan at 30° C. Growth was measured by optical density with a Klett colorimeter and doubling times were calculated from the exponential phase of each growth curve.

The target in assay [7] is anthranilate synthase encoded by trpE382 (Escherichia coli, UniProt P00895). The assay can be described thus: Feedback inhibition of anthranilate synthase by tryptophan, trpE382 enzyme. Format: biochemical.
The test system of assay [8] is transport negative tryptophan auxotroph carrying trpS378 (JP6006). Kind of assay: Growth response to tryptophan, trpS378 auxotroph defective in active transport. Format: cell-based, Escherichia coli.
Source text: as §1, §2

SMILES strings stand for the structures. Read-outs that look alike come from different tables or passages of the source.

Consider `N[C@@H](Cc1c[nH]c2ccccc12)C(=O)O` [tryptophan, L-tryptophan], for which the IC50 is around 0.02 mM in assay [1]; above 20 mM in assay [4] (mutants conferring higher feedback-resistance (Aiba et al. 1982), read-out: 50% inhibition values); around 13 mM in assay [4] (mutants typically chosen for tryptophan overproduction (Aiba et al., CA 1182409), read-out: tryptophan concentration at which the 50% inhibition figure occurred). For the same compound, the inhibition of activity result in assay [2] (1 mM tryptophan) was “less than 10%”; in assay [2] (tryptophan 13.5 g/l), “more than 60%”; in assay [5] it was “less than 10%”; in assay [7] (1 mM tryptophan), “less than 10%”. Also, in assay [2] (10 mM L-tryptophan), the “anthranilate synthase activity, % of full activity” value came to 70%. The “resistance to feedback inhibition” value in assay [2] (tryptophan 1 g/l) is recorded as “good resistance”. In addition, the “inhibition of anthranilate synthase” value in assay [2] (tryptophan 12 g/l (60 mM)) and in assay [7] (tryptophan 12 g/l (60 mM)) was 60-80% throughout. For the same compound, the “tryptophan level supporting growth at a fast rate” value in assay [3] is 50 µM. The “tryptophan level required for optimal growth” value in assay [6] is ~ 10^-3 M. For the same compound, in assay [6] (FIG. 1), the “tryptophan level at which the strain grows with a normal doubling time” value is on record as at least 1 mM. Moreover, in assay [8] (30° C., FIG. 1), the “tryptophan required for good growth” value is “at least 5 mM”. Further, the “tryptophan concentration before maximum growth rate is achieved” value in assay [8] (minimal medium) was found to be 5 mM.
